Experimental data from patent US12569506B2, “Methods of treating osteonecrosis with LLP2A-bisphosphonate compounds” (The Regents of the University of California, priority 2016, dated 2026).
“Also recorded” adds a separate entry of the source. Each block holds one molecule with its values, some of them ahead of it.

Assays:
α4β1 integrin = α4β1 integrin (Homo sapiens, UniProt P05556+P13612); conditions: Liu 2006; Peng 2006; DeNardo 2009; cited from earlier work
[1] = test system: dexamethasone-treated mice; test: 30 and 45 day prevention study: incidence of glucocorticoid-induced osteonecrosis; format: in vivo, BALB/c mice; conditions: for Prevalence/incidence of glucocorticoid-induced osteonecrosis lesions (in words): 30 or 45 days, Dex + LLP2A-Ale 250 or 500 μg/kg, or Dex + 40 μg/kg hPTH five times a week (FIG. 12); for Incidence of glucocorticoid-induced osteonecrosis: Dex alone 4 mg/L in drinking water
Method: FIG. 12. Reduction in incidence of glucocorticoid-induced osteonecrosis in mice treated with recombinant LLP2A-Ale. Mice were randomized into placebo (PL) (fresh water), dexamethasone (Dex) 4 mg/l in drinking water, Dex+250 μg/kg LLP2A-Ale, Dex+500 μg/kg LLP2A-Ale, or Dex+40 μg/kg hPTH (1-34) groups for a 30 day treatment period or a 45 day treatment period. The incidence of Dex-induced osteonecrosis was 57% on day 30 and 73% on day 45.
(§1) The efficacy of LLP2A-Ale and hPTH (1-34) was evaluated over a 30 and 45 day study using a mouse model of glucocorticoid-induced osteonecrosis. Seven week-old male BALB/c mice were randomized into Placebo group (fresh water), glucocorticoid only (4 mg/L dexamethasone (Dex) in drinking water), Dex+250 μg/kg LLP2A-Ale, Dex+500 μg/kg LLP2A-Ale, or Dex+40 μg/kg hPTH (administered five times a week) for 30 or 45 days. At day 30 or 45, the mice were sacrificed. Study endpoints included histological evidence of osteonecrosis, bone mass, and prevalent blood vessels (CD31 and Endomucin expression) in the distal femur, and was performed as set forth in Example 2. Non-parametric Kruskal-Wallis tests were used to determine the differences between the groups.

[2] = test system: dexamethasone-treated mice; test: 30 and 45 day prevention study: trabecular bone histology of distal femur epiphyses; format: in vivo, BALB/c mice
Method: as §1

[3] = test system: CD31 and Endomucin expression; test: 30 and 45 day prevention study: blood vessels in the distal femur (CD31 and Endomucin expression); format: in vivo, BALB/c mice
Method: as §1

[4] = test system: dexamethasone-treated mice; test: Empty lacunae density in distal femoral epiphysis, 90 day model; format: in vivo, BALB/c mice; conditions: distal femoral epiphysis, day 90; Dex only vs LLP2A-Ale 250, 500, 750 μg/kg groups (FIG. 8A-B)
Method: FIG. 8A-8B. Empty lacunae density of femurs from in dexamethasone-treated mice. Mice treated with placebo (PL), dexamethasone alone (Dex), Dex+250 μg/kg LLP2A-Ale, Dex+500 μg/kg LLP2A-Ale, or Dex+750 μg/kg LLP2A-Ale as described above for FIG. 7 were assessed for empty lacunae density within the distal femoral epiphysis region. Empty lacunae density was calculated by determining the number of empty lacunae in the entire distal femoral epiphysis region divided by the total number of osteocytes within the same region for each specimen. In the Dex only group, 75% of the samples had 10% or more empty lacunae, as compared to 44-62% of the samples in LLP2A-Ale-treated groups. A higher number of LLP2A-Ale 250 μg/kg, LLP2A-Ale 500 μg/kg, and LLP2A-Ale 750 μg/kg—treated samples had less than 10% empty lacunae as compared to Dex only treatment.
Both the right and left distal femurs were fixed in 10% neutral buffered formalin and were shaken for 3 days, then decalcified in 5% EDTA until the bones were fully decalcified. The specimens were then processed in ascending concentrations of ethanol and embedded in paraffin. Tissue sections were cut into 5 microns sections, stained with hematoxylin and eosin and evaluated for the presence of osteonecrosis by bright field microscopy at 20× magnification. […] Osteonecrosis was detected using modified criteria reported by Yang el al., (a mouse model for glucocorticoid-induced osteonecrosis: Effect of a steroid holiday. J Orthop Res. 2009; 27:169-75) which defines osteonecrosis as requiring all of the following changes: (1) empty lacunae, (2) pyknotic osteocyte nuclei in areas of empty lacunae and necrosis of adjacent bone marrow, (3) presence of excessive fat cells in the bone marrow, (4) cartilage degradation and (5) presence of fibrin thrombi in the blood vessels. In addition, trabecular bone volume, adipose volume, sinusoid volume and osteoblast surface at the distal femoral epiphyses were measured. Empty lacunae density was calculated by empty lacunae/total osteocytes within the entire distal femoral epiphysis region for each sample. […]

[5] = test system: dexamethasone-treated mice; test: Histological evaluation (H&E) of femoral epiphyses, 90 day model; format: in vivo, BALB/c mice; conditions: Dex 4 mg/L in drinking water, day 90, femoral epiphyses (FIG. 9C-9F)
Method: FIG. 9A-9F. Histological evaluation of femurs from placebo- or dexamethasone-treated mice. Mice were treated with placebo (PL) or dexamethasone alone (Dex) as described above for FIG. 7. All mice were euthanized at day 90. Right and left distal femurs were fixed in 10% neutral buffer formalin and decalcified. The specimens were dehydrated, embedded in paraffin, cut into 5 micron sections and H&E stained. The sections were scored by two experienced histologists and then a consensus reading was performed by two additional histologists. FIG. 9A-9B: 4× (A) and 20× (B) magnifications of representative proximal femoral epiphyses in mice treated with placebo. (C) 4× magnification of a representative proximal femoral epiphyses in mice treated with dexamethasone (Dex) alone. FIGS. 9D, 9E, and 9F: 20× magnifications of representative proximal femoral epiphyses in mice treated with dexamethasone (Dex) alone.
FIG. 11A-11F. Histological evaluation of femurs from LLP2A-Ale-treated mice. Mice were treated with Dex+250 μg/kg LLP2A-Ale as described above for FIG. 7. All mice were euthanized at day 90. Right and left distal femurs were fixed in 10% neutral buffer formalin and decalcified. The specimens were dehydrated, embedded in paraffin, cut into 5 micron sections and H&E stained. The sections were scored by two experienced histologists and then a consensus reading was performed by two additional histologists. (A, D): 4× magnifications of representative proximal femoral epiphyses in mice treated with Dex+LLP2A-Ale. (B, C, E, F): 20× magnifications of representative proximal femoral epiphyses in mice treated with Dex+LLP2A-Ale.
Both the right and left distal femurs were fixed in 10% neutral buffered formalin and were shaken for 3 days, then decalcified in 5% EDTA until the bones were fully decalcified. The specimens were then processed in ascending concentrations of ethanol and embedded in paraffin. Tissue sections were cut into 5 microns sections, stained with hematoxylin and eosin and evaluated for the presence of osteonecrosis by bright field microscopy at 20× magnification. Experimental methods are also described in Mohan et al., Calif Tissue Int (2016) doi:10.1007/s00223-016-0195-6, which is incorporated herein by reference in its entirety for all purposes. Osteonecrosis was detected using modified criteria reported by Yang el al., (a mouse model for glucocorticoid-induced osteonecrosis: Effect of a steroid holiday. J Orthop Res. 2009; 27:169-75) which defines osteonecrosis as requiring all of the following changes: (1) empty lacunae, (2) pyknotic osteocyte nuclei in areas of empty lacunae and necrosis of adjacent bone marrow, (3) presence of excessive fat cells in the bone marrow, (4) cartilage degradation and (5) presence of fibrin thrombi in the blood vessels. In addition, trabecular bone volume, adipose volume, sinusoid volume and osteoblast surface at the distal femoral epiphyses were measured. Empty lacunae density was calculated by empty lacunae/total osteocytes within the entire distal femoral epiphysis region for each sample. Each section was scored by two experienced histologists, then a consensus reading was performed by two additional experienced histologists.

[6] = Body weight, 90 day model; format: in vivo, BALB/c mice; conditions: all Dex treated animals vs placebo, day 7 up to day 90 (p<0.05)
Method: All the mice were euthanized at day 90. The body weights of all the study animals were assessed each week. If the study animals had 10% loss of body weight compared to the previous week, the dose of dexamethasone was reduced to 2 mg/L, until weight gain was observed. All of the animals were injected with calcein (30 mg/kg) and alizarin red (20 mg/kg) at 7 and 2 days before euthanization.

[7] = test system: glucocorticoid-treated mice; test: 56 day mouse model of glucocorticoid-induced osteonecrosis: femur blood vessel / vascular density by microCT; format: in vivo
Method: FIG. 2. Blood vessel density of femurs from glucocorticoid-treated mice. 4 month old male mice were treated glucocorticoid (“GC”) or placebo for 56 days. At day 28 a group of glucocorticoid-treated mice were treated with LLP2A-Ale or PTH for an additional 28 days.
FIG. 3. Vascular density of femurs from glucocorticoid-treated mice. 4 month old male mice were treated with glucocorticoid or placebo for 56 days. At day 28 a group of glucocorticoid-treated mice were treated with LLP2A-Ale or PTH for an additional 28 days. At day 56 animals were given a contrast agent and then sacrificed and then the animals femurs were decalcified and then scanned by microCT.
The efficacy of LLP2A-Ale was evaluated using a mouse model of glucocorticoid-induced osteonecrosis. 4-month-old male mice were treated for 56 days with glucocorticoids. At day 28, a group of mice was treated with either LLP2A-Ale or PTH for an additional 28 days. Blood vessel density of the femur was measured after sacrifice by microCT according to published methods. […] Vascular density of the femurs of glucocorticoid-treated mice subsequently treated with LLP2A-Ale or PTH was also assessed by giving the mice a contrast agent, then sacrificing the mice, decalcifying the femurs, and scanning the femurs by microCT. […] Without being bound to a particular theory, it is believed that LLP2A-Ale promotes increased vascularity by bringing MSCs to the bone that is turning over with osteonecrosis, which stimulates new blood vessel formation, which in turn is needed to stimulate new bone formation in the osteonecrotic bone.

[8] = test system: glucocorticoid-treated mice; test: Trabecular bone volume in glucocorticoid-treated mice; format: in vivo; conditions: GC 28 days then treatment; change from day 28 to 56, measured in vivo (FIG. 6 left)
Method: FIG. 6. Trabecular bone volume in glucocorticoid-treated mice. Mice were treated for 28 days with glucocorticoid (GC), then treated with either LLP2A-Ale, PTH, or LLP2A-Ale+PTH. The outcome measure was the change in trabecular bone mass from day 28 to 56, measured in vivo at the distal femur (left panel) and change in trabecular bone mass for the vertebral trabecular bone volume (right panel).
Changes in trabecular bone mass during the treatment period for the distal femur and vertebral trabecular bone volume were measured.

Chain of α4β1 integrin (P13612 34-1032): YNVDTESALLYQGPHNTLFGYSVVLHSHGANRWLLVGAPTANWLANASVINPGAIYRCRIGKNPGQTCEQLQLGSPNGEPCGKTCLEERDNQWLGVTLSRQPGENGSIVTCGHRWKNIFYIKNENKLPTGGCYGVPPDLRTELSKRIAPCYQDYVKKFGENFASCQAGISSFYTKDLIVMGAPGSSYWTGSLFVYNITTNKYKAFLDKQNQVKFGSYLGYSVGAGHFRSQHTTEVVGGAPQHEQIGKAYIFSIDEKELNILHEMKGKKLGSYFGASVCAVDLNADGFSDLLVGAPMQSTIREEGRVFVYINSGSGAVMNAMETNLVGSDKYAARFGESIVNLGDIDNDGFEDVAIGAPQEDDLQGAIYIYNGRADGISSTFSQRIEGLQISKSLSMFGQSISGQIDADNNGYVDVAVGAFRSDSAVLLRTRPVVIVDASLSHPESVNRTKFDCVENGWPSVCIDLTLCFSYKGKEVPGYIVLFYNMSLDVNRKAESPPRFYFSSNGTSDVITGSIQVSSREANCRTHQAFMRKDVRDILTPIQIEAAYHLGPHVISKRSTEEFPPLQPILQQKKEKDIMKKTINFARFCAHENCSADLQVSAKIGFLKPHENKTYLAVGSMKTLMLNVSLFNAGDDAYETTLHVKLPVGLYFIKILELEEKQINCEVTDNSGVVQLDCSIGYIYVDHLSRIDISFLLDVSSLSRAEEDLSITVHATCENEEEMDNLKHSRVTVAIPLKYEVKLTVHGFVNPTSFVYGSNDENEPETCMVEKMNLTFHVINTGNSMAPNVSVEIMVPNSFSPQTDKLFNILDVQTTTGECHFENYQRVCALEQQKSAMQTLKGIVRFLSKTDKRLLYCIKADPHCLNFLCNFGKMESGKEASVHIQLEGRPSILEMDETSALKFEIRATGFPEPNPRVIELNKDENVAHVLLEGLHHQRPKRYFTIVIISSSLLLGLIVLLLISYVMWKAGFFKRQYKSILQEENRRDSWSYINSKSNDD
Chain of α4β1 integrin (P05556 21-798): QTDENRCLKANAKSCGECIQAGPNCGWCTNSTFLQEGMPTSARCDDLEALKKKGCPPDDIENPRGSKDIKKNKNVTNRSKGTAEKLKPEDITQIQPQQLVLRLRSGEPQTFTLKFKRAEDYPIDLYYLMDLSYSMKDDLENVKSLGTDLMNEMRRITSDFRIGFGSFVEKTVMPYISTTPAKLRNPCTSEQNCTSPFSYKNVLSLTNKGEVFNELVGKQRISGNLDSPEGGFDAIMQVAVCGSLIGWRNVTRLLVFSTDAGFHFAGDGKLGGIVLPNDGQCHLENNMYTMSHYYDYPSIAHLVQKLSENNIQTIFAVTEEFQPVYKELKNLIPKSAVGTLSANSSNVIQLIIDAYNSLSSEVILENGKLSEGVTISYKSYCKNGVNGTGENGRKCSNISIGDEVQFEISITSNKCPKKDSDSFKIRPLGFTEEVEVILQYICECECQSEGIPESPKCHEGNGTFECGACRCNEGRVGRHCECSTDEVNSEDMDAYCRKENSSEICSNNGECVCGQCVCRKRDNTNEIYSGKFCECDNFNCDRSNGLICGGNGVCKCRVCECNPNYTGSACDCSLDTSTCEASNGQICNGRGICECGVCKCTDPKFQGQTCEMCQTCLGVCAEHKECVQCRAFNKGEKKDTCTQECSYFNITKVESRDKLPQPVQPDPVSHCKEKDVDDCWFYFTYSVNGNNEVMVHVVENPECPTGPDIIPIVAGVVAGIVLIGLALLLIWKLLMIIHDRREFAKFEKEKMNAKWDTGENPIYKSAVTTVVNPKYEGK

Molecule: Cc1ccccc1NC(=O)Nc1ccc(CC(=O)N[C@@H](CCCCNC(=O)/C=C/c2cccnc2)C(=O)N[C@@H](CCCC(=O)O)C(=O)NC2(C(N)=O)CCCCC2)cc1 [LLP2A]
- Binding to α4β1 integrin (affinity and specificity in words) (α4β1 integrin): high-affinity, high-specificity

Molecule: hPTH (1-34): human PTH (1-34), 40 μg/kg five times a week in Example 3 (SVSEIQLMHNLGKHLNSMERVEWLRKKLQDVHNF; Parathyroid hormone; UniProt P01270 32-65, looked up, fragment)
- Prevalence/incidence of glucocorticoid-induced osteonecrosis lesions (in words) [1]: prevented incident GC-induced osteonecrosis lesions; also recorded: prevented glucocorticoid-induced osteonecrotic lesions
- Prevalence/incidence of glucocorticoid-induced osteonecrosis lesions (in words) ([1]; listed as hPTH): reduced the incidence and severity of osteonecrosis
- Trabecular bone volume ([2]; day 30 and 45, Dex vs placebo, treated vs Dex (p<0.05)): higher bone volume
- Trabecular separation ([2]; vs Dex group, day 30 and 45 (p<0.05)): lower trabecular separation
- Vascular integrity of the distal femur ([3]; 30 and 45 day study, conclusion): maintained the vascular integrity

- Trabecular thickness ([2]; Dex vs placebo, day 30 and 45 (p<0.05)): significantly reduced
- Trabecular number ([2]; Dex, day 45 (p<0.05)): significantly reduced
- Staining intensity of CD31 and Endomucin expression ([3]; Dex vs LLP2A-Ale, hPTH (1-34) or placebo, day 30 and 45 (data not shown)): decreased the staining intensity
Molecule: C[C@@H]1C[C@H]2[C@@H]3CCC4=CC(=O)C=C[C@]4(C)[C@@]3(F)[C@@H](O)C[C@]2(C)[C@@]1(O)C(=O)CO [Dex, dexamethasone]
- Samples with 10% or more empty lacunae [4]: 75%
- Histological findings of osteonecrosis with dexamethasone alone [5]: Evidence of osteonecrosis was present throughout the epiphyses of the distal femurs; also recorded: necrotic trabeculae characterized by large empty lacunae
- Histological findings of osteonecrosis with dexamethasone alone ([5]; listed as dexamethasone): most of the bone marrow space was occupied by fat
- Body weight [6]: significantly lower
- Incidence of glucocorticoid-induced osteonecrosis ([1]; day 30): 57%
- Incidence of glucocorticoid-induced osteonecrosis ([1]; day 45): 73%

B1: PTH: parathyroid hormone, anabolic agent; given 20 ug/kg 5× a week in Example 1 (peptide, UniProt P01270 32-115, looked up)
Parathyroid hormone: SVSEIQLMHNLGKHLNSMERVEWLRKKLQDVHNFVALGAPLAPRDAGSQRPRKKEDNVLVESHEKSLGEADKADVNVLTKAKSQ
modifications: Parathyroid hormone
- Blood vessel density of the femur ([7]; 4 month old male mice, GC 56 days, LLP2A-Ale or PTH from day 28 for 28 days, microCT after sacrifice (FIG. 2)): significantly different from all other groups
- Vascular density of femurs ([7]; contrast agent at day 56, decalcified femurs scanned by microCT (FIG. 3), vs GC alone): did not exhibit a significant change in vascular density; also recorded: did not significantly change vascular density
- Change in trabecular bone mass/volume at the distal femur [8]: increased the trabecular bone volume to the baseline/sham level
